From patent publication US11499978B2, “Method for measuring quality of therapeutic cell through real-time glutathione measurement” (CELL2IN, INC., priority 2017, dated 2022)

Legend:
hUC-MSCs [1] = experiment: SDF1α- and PDGF-AA-induced migration capacity of hUC-MSCs; format: cell-based, human; conditions: increasing GGC treatment concentration (0.1, 0.25 mM), n=3
Procedure: The inventors observed an effect of the material on stem cells by treating each stem cells with a material for enhancing a glutathione evaluation parameter. When hUC-MSCs were subcultured in a L-AA2G-containing medium, CFU-F, migration capacity, and an anti-inflammatory effect were observed. A CFU-F assay (n=3) was performed by treating hUC-MSCs with 125 or 250 μg/mL of AA2G for three days. As shown in FIGS. 16A and 16B, it was confirmed that, when AA2G was treated, CFU-F increased. In addition, as hUC-MSCs were treated with 125 or 250 μg/mL of AA2G for three days, PDGF-AA-induced migration capacity (n=3) was analyzed. As shown in FIGS. 17A and 17B, it was confirmed that the migration capacity was increased by AA2G treatment. In addition, the reduction in T cell proliferation, the reduction in T cell differentiation, and the promotion of Treg cell differentiation were observed by treating hUC-MSCs with 125 or 250 μg/mL of AA2G for three days. […] Meanwhile, hUC-MSCs were cultured with a glutathione precursor such as γ-glutamyl cysteine (GGC, 0.1, 0.25, and 0.5 mM). […] In addition, SDF1α and PDGF-AA-induced migration capacities (n=3) were analyzed for hUC-MSCs without treatment with GGC, and SDF1α and PDGF-AA-induced migration abilities (n=3) were analyzed by treating hUC-MSCs with the increasing concentrations of GGC. […]

hUC-MSCs [2] = experiment: CFU-F assay of hUC-MSCs; format: cell-based, human; conditions: n=3
Procedure: The inventors observed an effect of the material on stem cells by treating each stem cells with a material for enhancing a glutathione evaluation parameter. When hUC-MSCs were subcultured in a L-AA2G-containing medium, CFU-F, migration capacity, and an anti-inflammatory effect were observed. A CFU-F assay (n=3) was performed by treating hUC-MSCs with 125 or 250 μg/mL of AA2G for three days. As shown in FIGS. 16A and 16B, it was confirmed that, when AA2G was treated, CFU-F increased. In addition, as hUC-MSCs were treated with 125 or 250 μg/mL of AA2G for three days, PDGF-AA-induced migration capacity (n=3) was analyzed. As shown in FIGS. 17A and 17B, it was confirmed that the migration capacity was increased by AA2G treatment. In addition, the reduction in T cell proliferation, the reduction in T cell differentiation, and the promotion of Treg cell differentiation were observed by treating hUC-MSCs with 125 or 250 μg/mL of AA2G for three days. […] Meanwhile, hUC-MSCs were cultured with a glutathione precursor such as γ-glutamyl cysteine (GGC, 0.1, 0.25, and 0.5 mM). A CFU-F assay (n=3) was performed by treating hUC-MSCs with each concentration of GGC for 2 hours. […] In addition, SDF1α and PDGF-AA-induced migration capacities (n=3) were analyzed for hUC-MSCs without treatment with GGC, and SDF1α and PDGF-AA-induced migration abilities (n=3) were analyzed by treating hUC-MSCs with the increasing concentrations of GGC. STI571 was used as a PDGFR kinase inhibitor. As shown in FIGS. 20A to 20C, it was confirmed that, according to an increase in GGC treatment concentration, SDF1α- and PDGF-AA-induced migration capacities were enhanced. A CFU-F assay (n=3) was performed by treating hUC-MSCs with 0.2, 1, 2, and 4 μM ferrostatin-1 and 0.1, 0.5, 1, and 2 μM liproxstatin-1 for 24 hours.

T cells = experiment: Anti-inflammatory effect of treated hUC-MSCs on T cells; format: cell-based; conditions: for anti-inflammatory effect of the hUC-MSCs: ferrostatin-1 1 μM 24 h, GGC 0.2 mM 2 h, FIGS. 27, 28A to 28C; for T cell differentiation capacity / T cell proliferation ability / Treg cell differentiation: hUC-MSCs treated with 1 μM ferrostatin-1 24 h, 0.2 mM GGC 2 h, 2 mM GSH-EE 2 h
Procedure: The inventors observed an effect of the material on stem cells by treating each stem cells with a material for enhancing a glutathione evaluation parameter. When hUC-MSCs were subcultured in a L-AA2G-containing medium, CFU-F, migration capacity, and an anti-inflammatory effect were observed. A CFU-F assay (n=3) was performed by treating hUC-MSCs with 125 or 250 μg/mL of AA2G for three days. As shown in FIGS. 16A and 16B, it was confirmed that, when AA2G was treated, CFU-F increased. In addition, as hUC-MSCs were treated with 125 or 250 μg/mL of AA2G for three days, PDGF-AA-induced migration capacity (n=3) was analyzed. As shown in FIGS. 17A and 17B, it was confirmed that the migration capacity was increased by AA2G treatment. In addition, the reduction in T cell proliferation, the reduction in T cell differentiation, and the promotion of Treg cell differentiation were observed by treating hUC-MSCs with 125 or 250 μg/mL of AA2G for three days.
In addition, hUC-MSCs were cultured with ferrostatin-1 (0.2, 1, 2 and 4 μM) and liproxstatin-1 (0.1, 0.5, 1 and 2 μM), which control a glutathione level in cells by inhibiting lipid oxidation. […] Meanwhile, the hUC-MSCs were treated with 1 μM ferrostatin-1 for 24 hours, 0.2 mM GGC for 2 hours, and 2 mM GSH-EE for 2 hours. As a result, the reduction in T cell proliferation ability and the reduction in T cell differentiation capacity were observed, and promotion of Treg cell differentiation was observed.

hUC-MSCs [3] = experiment: mGSH distribution in hUC-MSCs after RSL3 (MitoFreSH, flow cytometry and confocal imaging); format: cell-based, human; conditions: hUC-MSCs treated with RSL3
Procedure: After the cultured human umbilical cord-derived mesenchymal stem cells (hUC-MSCs) at passage 4, 7 or 15 were treated with various concentrations of RSL3 and stained with MitoFreSH, the distribution pattern of mitochondrial GSH (mGSH) in the cells was confirmed by histograms using flow cytometry and confocal imaging.
hUC-MSCs at passage 4, 7 or 15 were prepared, seeded at 70000 cells/well in a 6-well cell culture plate, and cultured at 37° C. for 24 hours. The medium used in the culture was prepared by adding 10% fetal bovine serum and 1× penicillin-streptomycin to α-MEM. […] The cells detached from the plate were transferred to an FACS tube and stored on ice, and a fluorescence level was measured using a flow cytometer.
hUC-MSCs at passage 4, 7 or 15 were prepared, seeded at 7000 cells/100 μl per well in a 96-well cell culture plate, and cultured at 37° C. for 24 hours. […] To remove MitoFreSH-Tracer from the medium before measurement, the medium was exchanged with fresh 10 mM HEPES-containing HBSS, and fluorescence images were measured using a confocal imaging system, Operetta.
A F510/F580 ratio referring to a GSH mean value in cells was calculated by measuring fluorescence values of F510 (fluorescence value when MitoFreSH-Tracer was bound with SH) and F580 (fluorescence value of MitoFreSH-Tracer, which was not bound with SH) in cells and dividing the F510 value by the F580 value. […]

hUC-MSCs [4] = experiment: Oxidative stress resistance capacity (ORC) analysis in hUC-MSCs with RSL3; format: cell-based, human; conditions: hUC-MSCs; liproxstatin-1 0, 2.5, 5 or 10 μM; RSL3 0, 0.5 or 1 μM; the higher the concentration
Procedure: GRC refers to a value obtained by real-time monitoring of FR after living cells are treated with an oxidizing agent, as calculated by dividing a value obtained by subtracting AUC of a group treated with 0.1-100 mM N-ethylmaleimide (NEM) from FR AUC of an oxidizing agent (diamide, H2O2, etc.)-treated group by a value obtained by subtracting the AUC of NEM-treated group from AUC of the untreated control, and multiplying the resulting value by 100. The FR of the NEM-treated group is a value for increasing the sensitivity of a GRC value by treating it as the blank value of the FR of the cells of interest. […] To remove the MitoFreSH-Tracer from the medium before measurement, the medium was exchanged with fresh 10 mM HEPES-containing HBSS(Hanks' Balanced Salt Solution), and a fluorescence image was obtained using a confocal imaging system, Operetta. By comparing GSH levels quantified from control cells not treated with RSL3 or control cells before treated with RSL3, the distribution of GSH expression-changed cells was calculated. Based on the point where the distribution histogram is divided into two peaks, the cells were divided into GSH^High cells (right peak) and GSH^Low cells (left peak), and then a ratio of corresponding cells was expressed as a percentage (%). […]

[5] = ferrostatin-1 0.2, 1, 2 and 4 μM, liproxstatin-1 0.1, 0.5, 1 and 2 μM, 24 hours

Row | Structure (SMILES) | SDF1α- and PDGF-AA-induced migration capacities (hUC-MSCs [1]) | CFU-F (hUC-MSCs [2]; GGC 0.1, 0.25 and 0.5 mM for 2 hours) | anti-inflammatory effect of the hUC-MSCs (T cells) | T cell differentiation capacity (T cells) | T cell proliferation ability (T cells) | Treg cell differentiation (T cells) | CFU-F (hUC-MSCs [2]; [5]) | effect of RSL3 on mGSH upon Ferrostatin-1 treatment (hUC-MSCs [3]) | ORC: ratio of the GSH^High cells (hUC-MSCs [4])
1 | N[C@@H](CCC(=O)N[C@@H](CS)C(=O)O)C(=O)O [GGC, γ-glutamyl cysteine] | enhanced | increased | no change | reduction | reduction | promotion | – | – | –
2 | CCOC(=O)c1ccc(NC2CCCCC2)c(N)c1 [ferrostatin-1] | – | – | did not alter | reduction | reduction | promotion | improved | disappeared | –
3 | Clc1cccc(CN=C2Nc3ccccc3NC23CCNCC3)c1 [liproxstatin-1] | – | – | did not alter | – | – | – | improved | – | increased
